Data on six compounds can be found in PMC10314922, “Fluorescence lifetime FRET assay for live-cell high-throughput screening of the cardiac SERCA pump yields multiple classes of small-molecule allosteric modulators” (Scientific Reports, 2023).

Assay [1] addresses T1, SERCA2a (Sus scrofa, UniProt P11607).
T1 construct: Cardiac SR vesicles were isolated from fresh porcine left ventricular tissue using differential centrifugation; from tissue; host or cells: porcine left ventricular tissue (cardiac SR vesicles)
Nature of the assay: NADH-linked Ca2+-ATPase activity assay in pig cardiac SR (pCSR) vesicles. Format: biochemical. To be noted: for Ca2+-ATPase ΔFMAX / Ca2+-ATPase ΔFMID: maximal compound effect vs DMSO control, pCSR; for Effect on Ca2+-ATPase activity (category, Fig. 4A): activators, categories activate / uncouple / inhibit. On the procedure:
(§1) Cardiac SR vesicles were isolated from fresh porcine left ventricular tissue using differential centrifugation of the homogenized tissue as previously described. The SR vesicles were flash-frozen and stored at − 80 °C until needed. The SERCA concentration in the ER preparations purified from HEK cell homogenate is at least 10 times less than in purified porcine cardiac SR[20], but there was sufficient expression of the fluorescent SERCA2a biosensor in HEK cells to detect FRET with high precision by FLT[22],[23],[26].
Functional assays were performed using porcine cardiac SR (pCSR) vesicles. An enzyme-coupled, NADH-linked ATPase assay was used to measure SERCA ATPase activity in 384-well microplates. Each well contained 50 mM MOPS (pH 7.0), 100 mM KCl, 1 mM EGTA, 0.2 mM NADH, 1 mM phosphoenol pyruvate, 10 IU/mL of pyruvate kinase, 10 IU/mL of lactate dehydrogenase, 7 µM of the calcium ionophore A23187 (Sigma), and CaCl2 was added to set free [Ca^2+] to three different concentrations. Ca^2+-ATPase activity was measured at three [Ca^2+]: [Ca^2+]MAX (saturating, pCa 5.4), [Ca^2+]MID (subsaturating, midpoint, pCa 6.2), and [Ca^2+]BAS (basal non-activating, pCa 8.0). 10 μg/mL of SR vesicle, calcium, compound (0.048 to 50 μM), and assay mix were incubated for 20 min at room temperature before measurement of functional assays with each of the 18 hit compounds, because a shorter incubation time than the FRET live-cell assays achieved optimal responses. The assay was started upon the addition of MgATP, at a final concentration of 5 mM (total volume to 80 μL), and absorbance was read at 340 nm in a SpectraMax Plus^384 microplate spectrophotometer (Molecular Devices, Sunnyvale, CA).
(§2) SERCA2a activity, F (rate of ATP hydrolysis or Ca^2+ uptake), was measured at varying pCa and varying compound concentration. F measured at [Ca^2+]MAX (saturating, pCa 5.4) or [Ca^2+]MID (subsaturating, midpoint, pCa 6.2) was corrected by subtracting the basal rate at pCa 8.0) and the % effect due to compound was reported. Concentration response curves (CRC) were fitted using the Hill function to determine VMAX (the activity at saturating [compound]), and EC50, the compound concentration at 50% effect.

For assay [2], the target named is T1, SERCA2a. In words: Oxalate-supported Fluo-4 Ca2+-uptake (Ca2+-transport) assay in pig cardiac SR (pCSR) vesicles. The format is biochemical. The following applies: for Ca2+-Uptake C10: concentration yielding 10% effect; for Decrease (inhibition) of Ca2+-uptake at [Ca2+]MAX: size of decrease; for Ca2+-Uptake ΔFMID / Ca2+-Uptake ΔFMAX: maximal compound effect vs DMSO control, pCSR; for Effect on Ca2+-uptake (category, Fig. 4A): activators, categories activate / uncouple / inhibit; for CR (coupling ratio) VU/VA: maximum Ca2+-uptake rate / Ca2+-ATPase rate at [Ca2+]MAX, DMSO control = 0.66; for Increase in Ca2+-uptake: over [Ca2+]MAX and [Ca2+]MID. The procedure: as §1
Ca^2+-transport assays were performed with similar porcine SR samples as in the Ca^2+-ATPase assays described above. The compound effect on the Ca^2+-transport activity of SERCA2a was determined using an oxalate-supported assay in which the change in fluorescence in a Ca^2+-sensitive dye, Fluor-4, was determined as previously described. A buffered solution containing 50 mM MOPS (pH 7.0), 100 mM KCl, 30 mg/mL sucrose, 1 mM EGTA, 10 mM potassium oxalate, 2 µM Fluo-4, 30 µg/mL porcine cardiac SR vesicles, CaCl2 calculated to reach the free [Ca^2+] (pCa 8.0, 6.2, and 5.4), and compound (0.048 to 50 μM) was dispensed into 384-well black walled, transparent bottomed plates (Greiner Bio-One) containing the tested small molecule and incubated at 22℃ for 20 min while covered and protected from light. To start the reaction, MgATP was added to a final concentration of 5 mM, and the decrease in 485-nm excited fluorescence of Fluo-4 was monitored at 520 nm for 15 min using a FLIPR Tetra (Molecular Devices, San Jose, CA).
as §2

[3] abbreviates: [Ca2+]MAX (pCa5.4), concentration yielding 10% effect.
Setting [4] is: [Ca2+]MID (pCa6.2), concentration yielding 10% effect.

Values joined by “and” are separate entries in the source; they are usually repeats but may differ in a detail not shown here. Identical values can stand only once.

T1 sequence (P11607 1-997 isoform P11607-2): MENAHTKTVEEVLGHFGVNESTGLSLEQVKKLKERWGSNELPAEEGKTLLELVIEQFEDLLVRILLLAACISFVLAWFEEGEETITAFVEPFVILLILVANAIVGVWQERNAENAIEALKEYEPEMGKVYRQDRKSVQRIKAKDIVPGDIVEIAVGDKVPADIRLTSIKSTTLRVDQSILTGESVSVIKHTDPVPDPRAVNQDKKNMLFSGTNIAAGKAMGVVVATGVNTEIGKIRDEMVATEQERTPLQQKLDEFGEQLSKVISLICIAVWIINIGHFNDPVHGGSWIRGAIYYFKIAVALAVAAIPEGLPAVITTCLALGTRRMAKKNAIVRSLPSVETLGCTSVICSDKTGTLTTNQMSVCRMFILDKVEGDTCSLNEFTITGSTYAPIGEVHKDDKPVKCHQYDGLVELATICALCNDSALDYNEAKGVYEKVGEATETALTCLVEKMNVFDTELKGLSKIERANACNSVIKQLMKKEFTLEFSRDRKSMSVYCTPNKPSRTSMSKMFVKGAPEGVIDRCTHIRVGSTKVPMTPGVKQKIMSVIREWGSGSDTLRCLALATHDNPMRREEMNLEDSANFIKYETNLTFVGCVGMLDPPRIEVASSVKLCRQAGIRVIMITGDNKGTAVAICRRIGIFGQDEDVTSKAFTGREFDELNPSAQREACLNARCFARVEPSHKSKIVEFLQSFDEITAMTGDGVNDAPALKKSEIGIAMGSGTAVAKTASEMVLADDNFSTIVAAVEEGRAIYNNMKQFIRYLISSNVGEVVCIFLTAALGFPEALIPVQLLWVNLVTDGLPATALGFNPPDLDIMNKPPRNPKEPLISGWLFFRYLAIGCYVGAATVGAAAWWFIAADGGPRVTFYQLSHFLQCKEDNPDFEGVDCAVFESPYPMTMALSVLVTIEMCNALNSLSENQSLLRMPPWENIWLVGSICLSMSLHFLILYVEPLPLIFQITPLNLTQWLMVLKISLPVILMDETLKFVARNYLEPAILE

Turning to `Cc1cnc(C)c(N2CCN(C(=O)c3cc(COc4ccc5ncccc5c4)on3)CC2)n1` [Compound 1, 6-[(3-{[4-(3,6-dimethyl-2-pyrazinyl)-1-piperazinyl]carbonyl}-5-isoxazolyl)methoxy]quinoline], at SERCA2a [1], the “Increase in Ca2+-ATPase activity” value was 10–25% and the “Effect on Ca2+-ATPase activity (category, Fig. 4A)” value (“Effect on Ca2+-ATPase activity” for short) is reported as “activate”. The “Ca2+-ATPase ΔFMAX” value at SERCA2a [1] ([Ca2+]MAX (pCa5.4)) was 8 ± 6.3%. On SERCA2a [1] ([Ca2+]MID (pCa6.2)), the “Ca2+-ATPase ΔFMID” value is listed as 8 ± 5.8%. In addition, at SERCA2a [2] ([Ca2+]MAX (pCa5.4)), the “Ca2+-Uptake C10” value came to 50 µM. For the same compound, on SERCA2a [2], the “Decrease (inhibition) of Ca2+-uptake at [Ca2+]MAX” value was 10%; the “Effect on Ca2+-uptake (category, Fig. 4A)” value (“Effect on Ca2+-uptake” for short) is “inhibit”; the “CR (coupling ratio) VU/VA” value amounted to 0.49. Moreover, the “Ca2+-Uptake ΔFMID” value at SERCA2a [2] ([Ca2+]MID (pCa6.2)) is 2% and 2 ± 1.0%.
As usually defined, the EC50 is the concentration that produces a half-maximal response. Read a low EC50 as a more potent agent. `c1ccc(-c2cc(CN3CCN(c4ncnc5ccccc45)CC3)on2)cc1` [Compound 4, 4-{4-[(3-phenyl-5-isoxazolyl)methyl]-1-piperazinyl}quinazoline]: on SERCA2a [1] ([Ca2+]MAX (pCa5.4)), the EC50 was determined as 15 ± 7.2 µM and the “Ca2+-ATPase ΔFMAX” value is 10 ± 5.3%. For the same compound, the “Ca2+-ATPase C10” value at SERCA2a [1] (setting [3]) worked out at 50.0 µM. On SERCA2a [1] (setting [4]), the “Ca2+-ATPase C10” value is reported as 39.2 µM. In addition, on SERCA2a [1] ([Ca2+]MID (pCa6.2)), the “Ca2+-ATPase ΔFMID” value is 11 ± 6.1%. Further, the “Effect on Ca2+-ATPase activity” value at SERCA2a [1] is reported as “activate”. Further, the “Ca2+-Uptake ΔFMAX” value on SERCA2a [2] ([Ca2+]MAX (pCa5.4)) is 0.5% and 0.5 ± 3.2%. For the same compound, on SERCA2a [2] ([Ca2+]MID (pCa6.2)), the “Ca2+-Uptake C10” value worked out at 47 µM; the “Ca2+-Uptake ΔFMID” value is 11% and 11 ± 2.7%. On SERCA2a [2], the “Effect on Ca2+-uptake” value is given as “uncouple”; the “CR (coupling ratio) VU/VA” value is reported as 0.51; the “Increase in Ca2+-uptake” value is 0.5–10%.
For the compound `O=C(c1ccc(-c2ccc(O)cc2)nc1)N1CCC(CCc2ccccc2)CC1` [Compound 6, 4-(5-{[4-(2-phenylethyl)piperidin-1-yl]carbonyl}pyridin-2-yl)phenol], at SERCA2a [1], the “Increase in Ca2+-ATPase activity” value is on record as 10–25% and the “Effect on Ca2+-ATPase activity” value was “activate”. Moreover, the “Ca2+-ATPase C10” value on SERCA2a [1] (setting [3]) was found to be 9.7 µM. On SERCA2a [1] ([Ca2+]MAX (pCa5.4)), the “Ca2+-ATPase ΔFMAX” value is 25% and 25 ± 6.3%. In addition, on SERCA2a [1] ([Ca2+]MID (pCa6.2)), the EC50 was determined as 11.1 ± 1.5 µM; the “Ca2+-ATPase ΔFMID” value is 30% and 30 ± 10%. For the same compound, at SERCA2a [1] (setting [4]), the “Ca2+-ATPase C10” value was found to be 8.7 µM. At SERCA2a [2] ([Ca2+]MAX (pCa5.4)), the EC50 was found to be 16 ± 1.2 µM; the “Ca2+-Uptake C10” value is 15 µM and 15.1 µM. Also, at SERCA2a [2], the “Decrease (inhibition) of Ca2+-uptake at [Ca2+]MAX” value is given as 21%; the “Effect on Ca2+-uptake” value is listed as “inhibit”; the “CR (coupling ratio) VU/VA” value is 0.48. On SERCA2a [2] ([Ca2+]MID (pCa6.2)), the EC50 was determined as 2.9 ± 1 µM; the “Ca2+-Uptake C10” value was 4 µM and 4.2 µM; the “Ca2+-Uptake ΔFMID” value is 17% and 17 ± 1.4%.
For `CCn1nc(C)c(CN2CCCC(Nc3ccc(C(C)C)cc3)C2)c1C` (centres unmarked) [Compound 7, 1-[(1-ethyl-3,5-dimethyl-1H-pyrazol-4-yl)methyl]-N-(4-isopropylphenyl)-3-piperidinamine], the “Ca2+-ATPase C10” value at SERCA2a [1] (setting [3]) was found to be 25 µM. In addition, the “Ca2+-ATPase ΔFMAX” value on SERCA2a [1] ([Ca2+]MAX (pCa5.4)) was 14% and 14 ± 2%. In addition, the “Ca2+-ATPase ΔFMID” value at SERCA2a [1] ([Ca2+]MID (pCa6.2)) is 7% and 7 ± 3%. Besides, at SERCA2a [1], the “Effect on Ca2+-ATPase activity” value is given as “activate”. In addition, on SERCA2a [2] ([Ca2+]MAX (pCa5.4)), the “Ca2+-Uptake C10” value amounted to 14 µM; the “Ca2+-Uptake ΔFMAX” value is 24% and 24 ± 10%. Besides, on SERCA2a [2] ([Ca2+]MID (pCa6.2)), the “Ca2+-Uptake C10” value is 21 µM and 20.6 µM; the “Ca2+-Uptake ΔFMID” value was 19% and 19 ± 9.8%. In addition, on SERCA2a [2], the “Effect on Ca2+-uptake” value was “activate” and the “CR (coupling ratio) VU/VA” value turned out to be 0.74.
Turning to `COc1ccc(C(=O)C2CCCN(Cc3nc(-c4ccc(F)cc4)cs3)C2)c(OC)c1` (centres unmarked) [Compound 8, (2,4-dimethoxyphenyl)(1-{[4-(4-fluorophenyl)-1,3-thiazol-2-yl]methyl}-3-piperidinyl)methanone], the Ca2+-ATPase C10 on SERCA2a [1] ([Ca2+]MAX) was found to be 4.3 µM. On SERCA2a [1] ([Ca2+]MAX (pCa5.4)), the EC50 is 8.3 ± 0.9 µM; the “Ca2+-ATPase ΔFMAX” value is 49% and 49 ± 4.8%. Moreover, the “Ca2+-ATPase C10” value at SERCA2a [1] (setting [3]) worked out at 4.3 µM. In addition, on SERCA2a [1] ([Ca2+]MID (pCa6.2)), the response was half-maximal at 10 ± 1.9 µM (EC50); the “Ca2+-ATPase ΔFMID” value was 31% and 31 ± 14%. For the same compound, the “Ca2+-ATPase C10” value on SERCA2a [1] (setting [4]) was 7.8 µM. On SERCA2a [1], the “Effect on Ca2+-ATPase activity” value is recorded as “activate”. Besides, at SERCA2a [2] ([Ca2+]MAX (pCa5.4)), the “Ca2+-Uptake C10” value was 25 µM; the “Ca2+-Uptake ΔFMAX” value is 10% and 10 ± 6.5%. Also, the “Ca2+-Uptake ΔFMID” value at SERCA2a [2] ([Ca2+]MID (pCa6.2)) was 7% and 7 ± 3.0%. In addition, at SERCA2a [2], the “Effect on Ca2+-uptake” value is “uncouple”; the “CR (coupling ratio) VU/VA” value came out at 0.4; the “Increase in Ca2+-uptake” value is recorded as 0.5–10%.
On to `OCC1(Cc2ccccc2F)CCCN(Cc2cc3c(cc2Cl)OCO3)C1` (centres unmarked) [Compound 12, [1-[(6-chloro-1,3-benzodioxol-5-yl)methyl]-3-(2-fluorobenzyl)-3-piperidinyl]methanol], for which the EC50 on SERCA2a [1] ([Ca2+]MAX (pCa5.4)) was determined as 3.8 ± 0.3 µM; at SERCA2a [1] ([Ca2+]MID (pCa6.2)) it was 4.2 ± 0.4 µM; at SERCA2a [2] ([Ca2+]MAX (pCa5.4)), 1.8 ± 0.1 µM; on SERCA2a [2] ([Ca2+]MID (pCa6.2)), 3.2 ± 0.1 µM. Moreover, the “Ca2+-ATPase C10” value at SERCA2a [1] (setting [3]) and at SERCA2a [1] (setting [4]) was 1.0 µM in each case. The “Ca2+-Uptake C10” value at SERCA2a [2] ([Ca2+]MAX (pCa5.4)) stood at 0.4 µM; at SERCA2a [2] ([Ca2+]MID (pCa6.2)), 0.8 µM.
